Results reported in patent publication US7560591B2, “Benzamidine derivatives having anti-inflammatory and immunosuppressive activity” (Rotta Research Laboratorium S.p.A., priority 2001, dated 2009).
Where two headings read alike, the source gives them in different places.

Tests used:
[1] = test system: formation of PGE2; test: Inhibition of PGE2 formation in rabbit joint chondrocytes stimulated by IL-1β (RIA); format: cell-based; conditions: Oryctolagus cuniculus, Chondrocyte, IL-1β 1 ng/ml, 48 hours
Procedure: (§1) a) The activity in inhibiting the formation of NO, measured as NO2^− (nitrites), PGE2, and neutral protease, was investigated in vitro on culture broths of rabbit joint chondrocytes stimulated by cytokine IL-1β (1 ng/ml) for 48 hours. For the preparation of the chondrocytes, the method described by Berenbaum et al [FEBS Letters 340, 51-55 (1994)] was followed. Briefly, fragments of cartilage removed under sterile conditions from the heads of rabbit shoulder, hip and knee joints were chopped finely and digested at 37° C. by hyaluronidase, trypsin and collagenase solutions, giving rise, after filtration on sterile gauze and centrifuging at 600×g and suitable dilution with 10% DMEM-FCS, to a concentration of approximately 1×10^5 cells per well. The cells were kept in these conditions until confluence (about 15 days), the broth being changed every 3 days. At this point, the products under test, dissolved in the medium, were added to each test sample and, after 20 minutes, 350 μl IL-1β was added in order to have a final concentration of 1 ng/ml. The duration of the stimulation was 48 hours at 37° C. (incubation air-CO2 7%). Measurement of the nitrites, as described by Green et al. [Anal. Biochem. 126, 131-138 (1982)], and of the PGE2s by RIA measurement, was then performed on the cell supernatant fluid. The measurement of the neutral proteases was performed in the cell supernatant fluid containing the p-aminophenyl mercury acetate (APMA) activator with the use of azocoll as the substrate and with incubation at 37° C. for 17 h as described by Chavira et al. [Anal. Biochem. 136, 446-450 (1984)]. In order to evaluate the direct inhibitory effect of the compounds under test on the hydrolytic activity of the cell supernatant fluid, they were added to the supernatant fluid containing the proteases induced by IL-1β and already activated by AMPA.
(§2) The results obtained are shown in Table 3, in which the IC50, that is, the concentration (micromolar) of antagonist which can inhibit the formation of nitrites, PGE2s, and neutral proteases, respectively, by 50% relative to the control group, that is, to the cells stimulated with IL-1β but without the addition of antagonists, is given for some of the compounds of the invention already given by way of example in Table 2.

[2] = test system: neutral proteases (metalloproteases); test: Inhibition of neutral proteases (metalloproteases) in supernatant of IL-1β-stimulated rabbit joint chondrocytes, azocoll substrate; format: biochemical; conditions: IL-1β 1 ng/ml, 48 hours, APMA-activated supernatant, read-out: MP (metalloproteases) IC50
Procedure: as §1, §2

[3] = test system: extravasation in the ears of mice; test: Extravasation (Evans Blu) induced by phlogogenic agents in the ears of mice; format: in vivo; conditions: for % inhibition of extravasation, PAF: 1 h; for % inhibition of extravasation, Zymosan: 2 h; for % inhibition of extravasation, Arachidonic Acid / % inhibition of extravasation, Bradykinin / % inhibition of extravasation, Histamine: 30 min; for ED50: OS, mouse ear
Procedure: b) Some of the compounds of the invention, such as compounds I-4, I-11 and I-31, were evaluated in vivo in a series of experimental extravasation models in which 5 μl of the preselected phlogogenic agent dissolved in physiological solution was injected intradermally into the ears of mice as described by Erdo et al., with slight modifications [Agents and Actions 39, 137-142 (1993)].
The products under test were administered orally 1 hour before the challenge and, 30 minutes before the challenge, the dye Evans Blu was injected intravenously in a dose of 100 mg/kg. The animals were killed at a time predetermined according to the test, 30 min.—2 hours after the challenge. The extravasation was evaluated by determining the quantity of dye present in the ear, extracted after homogenisation of the tissue in 2 ml of formamide and incubation at 50° C. for 2 hours. After centrifuging, the amount of dye was determined by measuring the absorption at 620 nm. The maximum % effect (% MPE) was calculated by the following formula:
[formula] in which EV is the mean absorption observed in the group of animals treated solely with the phlogogenic agent, ED is the group treated with the phlogogenic agent and the drug, and EB is the base value, that is, the value for the animals injected with physiological solution alone.
The phlogogenic agents used were:
Arachidonic acid (dissolved in EtOH); (1 mg/mouse; killed+30 min); histamine (3 nmoli/mouse; killed+30 min); PAF (30 pmoli/mouse; killed+60 min); Zymosan (10 μg/mouse; killed+120 min); bradykinin (0.6 nmoli/mouse; killed+30 min).

[4] = test system: plasma TNFα; test: Plasma TNFα concentration in rats after stimulation with LPS (endotoxic shock); format: in vivo, rat; conditions: for TNFα (ng/ml ± SD): plasma 90 minutes after challenge
Procedure: c) The immunosuppressive activity of Compound I-4 was evaluated in an in vivo test in the rat, in which a lipopolysaccharide (LPS) of bacterial origin, injected i.p. at a dose of 6 mg/kg, induced a shock characterised by urgent diarrhoea accompanied by a large increase in the plasma TNFα concentration.
Blood was taken from the animals which were killed 90 minutes after the challenge and the concentration of TNFα in the plasma was determined by Elisa (Amersham Kit cod. RPN2734).

[5] = 50 μg/kg ICV + LPS 6 mg/kg I.P.

Q: With `CCCCCNC(=S)Nc1ccc(NC(C)=N)cc1` [Compound I-4, N-[4-(N-acetamidine)phenyl]-N′-pentyl Thiourea] as the molecule, how does the IC50 [1] read?
A: 3.3 µM

Q: What about the IC50 [2] of the same molecule?
A: 6.6 µM

Q: What about the “% inhibition of extravasation, PAF” value ([3]; 2.5 mg/kg OS, PAF) of the same molecule?
A: 41.9%

Q: What about the “% inhibition of extravasation, Zymosan” value ([3]; 2.5 mg/kg OS, Zymosan) of the same molecule?
A: 40.0%

Q: And the “% inhibition of extravasation, Arachidonic Acid” value (“% inhibition … Arachidonic Acid” for short) ([3]; 5 mg/kg OS)?
A: 37.8%

Q: And the “% inhibition of extravasation, Bradykinin” value (shortened to “% inhibition … Bradykinin”) ([3]; 5 mg/kg OS)?
A: 30.1%

Q: And the “% inhibition of extravasation, Histamine” value ([3]; 5 mg/kg OS)?
A: 17.8%

Q: What about the “% inhibition of extravasation, PAF” value ([3]; 5 mg/kg OS, PAF) of the same molecule?
A: 49.9%

Q: And the “% inhibition of extravasation, Zymosan” value ([3]; 5 mg/kg OS, Zymosan)?
A: 66.6%

Q: And the “% inhibition … Arachidonic Acid” value ([3]; 10 mg/kg OS)?
A: 40.0%

Q: And the “% inhibition … Bradykinin” value ([3]; 10 mg/kg OS)?
A: 30.7%

Q: What about the “% inhibition of extravasation, Histamine” value ([3]; 10 mg/kg OS) of the same molecule?
A: 27.7%

Q: And the “% inhibition of extravasation, PAF” value ([3]; 10 mg/kg OS, PAF)?
A: 55.1%

Q: What about the “% inhibition of extravasation, Zymosan” value ([3]; 10 mg/kg OS, Zymosan) of the same molecule?
A: 65.8%

Q: And the “% inhibition … Arachidonic Acid” value ([3]; 20 mg/kg OS)?
A: 52.6%

Q: And the “% inhibition … Bradykinin” value ([3]; 20 mg/kg OS)?
A: 49.1%

Q: What about the “% inhibition of extravasation, Histamine” value ([3]; 20 mg/kg OS) of the same molecule?
A: 38.8%

Q: And the “% inhibition of extravasation, PAF” value ([3]; 20 mg/kg OS, PAF)?
A: 56.4%

Q: And the “% inhibition of extravasation, Zymosan” value ([3]; 20 mg/kg OS, Zymosan)?
A: 83.9%

Q: What about the “% inhibition … Arachidonic Acid” value ([3]; 40 mg/kg OS) of the same molecule?
A: 55.5%

Q: And the “% inhibition … Bradykinin” value ([3]; 40 mg/kg OS)?
A: 51.3%

Q: What about the “% inhibition of extravasation, Histamine” value ([3]; 40 mg/kg OS) of the same molecule?
A: 52.5%

Q: And the “% inhibition of extravasation, PAF” value ([3]; 40 mg/kg OS, PAF)?
A: 66.2%

Q: What about the “% inhibition of extravasation, Zymosan” value ([3]; 40 mg/kg OS, Zymosan) of the same molecule?
A: 89.8%

Q: What about the “% inhibition of extravasation, Zymosan” value ([3]; 80 mg/kg OS, Zymosan) of the same molecule?
A: 95.5%

Q: And the inhibition at 5 mg/kg ([3]; Mus musculus, 5 mg/kg, models other than Zymosan, read-out: mean inhibitory effect in the other extravasation models)?
A: ~35%

Q: And the ED50 ([3]; PAF, read-out: ED50, extravasation induced by PAF)?
A: 6.1 mg/kg

Q: What about the ED50 ([3]; Zymosan, read-out: ED50, extravasation induced by Zymosan) of the same molecule?
A: 3.1 mg/kg

Q: What about the ED50 ([3]; arachidonic acid, read-out: ED50, extravasation induced by AA (arachidonic acid)) of the same molecule?
A: 20.5 mg/kg

Q: What about the ED50 ([3]; bradykinin, read-out: ED50, extravasation induced by Bradykinin) of the same molecule?
A: 32.6 mg/kg

Q: And the ED50 ([3]; histamine, read-out: ED50, extravasation induced by Histamine)?
A: 37 mg/kg

Q: And the “Inhibition (%) of plasma TNFα” value [4, 5]?
A: 96.2%

Q: And the “TNFα (ng/ml ± SD)” value [4, 5]?
A: 2.3 ± 1.2 ng/mL

Q: And the “TNFα (ng/ml ± SD)” value ([4]; 10 mg/kg IV + LPS 6 mg/kg I.P.)?
A: 12.9 ± 7.2 ng/mL

Q: And the “TNFα (ng/ml ± SD)” value ([4]; 20 mg/kg OS + LPS 6 mg/kg I.P.)?
A: 30.6 ± 1.0 ng/mL

Q: What about the inhibition at 10 mg/kg ([4]; Rattus norvegicus, 10 mg/kg IV + LPS 6 mg/kg I.P.) of the same molecule?
A: 78.9%

Q: What about the melting point of the same molecule?
A: 190.7 to 191.4 °C
